Results as given in patent US20120276049A1, “Methods and compositions for amelioration of autoimmune disease using fusion proteins of anti-dendritic cell receptor antibody to peptide sequences” (President and Fellows of Harvard College, priority 2009, published 2012).
Each block holds one substance with its values, some of them ahead of it.

Key:
[1] = biological target: DEC205 receptor (mouse), on splenic CD11c+ dendritic cells of SJL mice (mouse) (UniProt Q60767); assay: cell-based or functional assay
[2] = tested on: PLP139-151-induced EAE in recipient SJL mice; assay: Adoptive transfer of CD4+ T cells from preimmunized SJL mice, then EAE induction in recipients; assay type: in vivo, mouse; conditions: donors coimmunized with 500 μg copolymer
Description: SJL mice were preimmunized on day 10 i.p. with each of 1 μg fusion monoclonal antibodies: DEC205-PLP-specific (closed diamonds; αDEC205/PLP mAb CD4^+ T cells) or control GL117-PLP-specific (closed squares; GL117/PLP mAb CD4^+ T cells), or control treatment with 500 μg of the synthetic amino acid copolymer (poly (F,Y,A,K)n; closed light gray circles; PLP139-151+FYAK CD4^+ T cells) or no treatment (closed triangles). The 5×10^6 CD4+ T cells, enriched splenocytes obtained from preimmunized mice, were adoptively transferred i.v. into the tail veins of non-treated mice, followed by immunization on day 1 with 75 μg of PLP139-151 in CFA and PT i.v. the following day. Controls received PBS injections. Mean disease scores of five mice/group are shown. […]
SJL mice herein were preimmunized at day 10 i.p. with 1 μg of DEC205-PLP specific monoclonal antibodies (closed diamonds; αDEC205/PLP mAb) only or not treated (closed triangles) in a control group. Mice were monitored for clinical signs of EAE for 30 days. […]
SJL/J mice were preimmunized (day 10, 15, or 20) with 1 μg i.p. of fusion monoclonal antibodies (DEC205-PLP specific monoclonal antibodies, DEC205-HA specific monoclonal antibodies, DEC205 specific monoclonal antibodies alone, or GL117-PLP specific monoclonal antibodies). […] The mice were scored daily for 30 days. […]

[3] = tested on: patients with secondary progressive MS; conditions: weekly s.c. 3 or 10 mg; 50 patients; cited from earlier work
[4] = tested on: Experimental Autoimmune Encephalomyelitis (EAE, the mouse model of MS); conditions: compared with Copaxone; cited from earlier work
[5] = tested on: relapsing-remitting forms of MS; conditions: cited from earlier work
[6] = in vivo; cited from earlier work

Sequence of UniProt Q60767 (Q60767 28-1723): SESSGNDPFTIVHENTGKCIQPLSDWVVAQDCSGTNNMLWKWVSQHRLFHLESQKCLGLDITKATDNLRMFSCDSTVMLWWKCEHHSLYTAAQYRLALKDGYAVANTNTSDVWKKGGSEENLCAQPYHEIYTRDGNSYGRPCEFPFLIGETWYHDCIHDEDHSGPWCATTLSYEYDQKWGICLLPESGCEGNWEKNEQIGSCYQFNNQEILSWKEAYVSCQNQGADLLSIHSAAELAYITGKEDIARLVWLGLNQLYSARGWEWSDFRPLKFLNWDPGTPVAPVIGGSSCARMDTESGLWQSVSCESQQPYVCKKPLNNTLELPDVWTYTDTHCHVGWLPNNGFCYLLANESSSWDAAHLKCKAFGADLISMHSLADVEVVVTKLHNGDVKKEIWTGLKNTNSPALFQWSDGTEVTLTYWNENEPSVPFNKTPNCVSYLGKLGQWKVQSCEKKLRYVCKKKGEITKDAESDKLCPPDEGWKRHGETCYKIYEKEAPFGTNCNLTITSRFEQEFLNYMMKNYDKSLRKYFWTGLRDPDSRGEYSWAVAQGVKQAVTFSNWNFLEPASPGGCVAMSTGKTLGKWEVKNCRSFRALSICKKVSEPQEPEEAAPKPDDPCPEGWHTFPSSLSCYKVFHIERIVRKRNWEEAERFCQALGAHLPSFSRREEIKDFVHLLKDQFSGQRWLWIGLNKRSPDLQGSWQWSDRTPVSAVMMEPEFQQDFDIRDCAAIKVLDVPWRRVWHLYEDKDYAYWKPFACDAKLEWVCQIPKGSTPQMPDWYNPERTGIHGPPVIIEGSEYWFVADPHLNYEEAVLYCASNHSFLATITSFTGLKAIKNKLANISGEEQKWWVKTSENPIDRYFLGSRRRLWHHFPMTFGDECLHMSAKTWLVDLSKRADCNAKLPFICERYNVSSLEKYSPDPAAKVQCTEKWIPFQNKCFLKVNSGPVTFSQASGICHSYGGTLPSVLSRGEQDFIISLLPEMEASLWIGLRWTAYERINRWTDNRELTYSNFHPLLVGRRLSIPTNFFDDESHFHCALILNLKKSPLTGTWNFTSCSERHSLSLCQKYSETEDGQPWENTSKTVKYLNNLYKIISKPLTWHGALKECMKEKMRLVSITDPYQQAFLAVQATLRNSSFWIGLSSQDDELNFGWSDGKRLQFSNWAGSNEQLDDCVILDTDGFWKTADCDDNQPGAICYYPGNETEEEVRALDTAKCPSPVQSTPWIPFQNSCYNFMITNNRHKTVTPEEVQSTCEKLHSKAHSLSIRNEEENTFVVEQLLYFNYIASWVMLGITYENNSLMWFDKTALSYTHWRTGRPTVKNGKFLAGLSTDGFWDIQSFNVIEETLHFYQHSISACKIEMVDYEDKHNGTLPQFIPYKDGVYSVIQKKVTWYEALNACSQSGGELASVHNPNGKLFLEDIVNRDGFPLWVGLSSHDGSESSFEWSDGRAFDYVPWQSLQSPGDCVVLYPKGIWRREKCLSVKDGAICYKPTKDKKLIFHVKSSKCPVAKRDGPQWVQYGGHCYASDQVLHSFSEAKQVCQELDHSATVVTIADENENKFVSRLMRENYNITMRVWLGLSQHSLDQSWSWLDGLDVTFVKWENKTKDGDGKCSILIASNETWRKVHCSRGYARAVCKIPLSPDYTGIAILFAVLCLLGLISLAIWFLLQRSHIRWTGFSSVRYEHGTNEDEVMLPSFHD

IFN-γ secretion in day 3 coculture supernatants (cytokine bead array) [1]: 10 fold
Substance: anti-DEC205-PLP139-151 fusion monoclonal antibody (cloned NLDC-145 with PLP139-151 fused to the C terminus of the Ig heavy chain)

Substance: poly (F,Y,A,K)n [FYAK]
EAE induction in recipients of CD4+ T cells [2]: efficiently prevented EAE induction | number of Gadolinium-enhancing lesions [3]: severely reduce | effectiveness in treatment of EAE [4]: far more effective than Copaxone

Substance: poly(Y, E, A, K)n [Copaxone ®]
reduction of relapse rate [5]: 30% | side effects [6]: severe injection
